Measurements reported in ChEMBL document CHEMBL1201862, “PubChem BioAssay data set” (2004).
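Exposure lasted 48 hours, with cells grown in 96-well plates and compounds tested at five concentrations. Abbreviation: GI50, concentration required for 50% inhibition of growth.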 Activity calls are given as the source filed them. Cut-off read from the data, not from the text of the source: active = GI50 up to about 1.1 µM and inactive = higher.

How the values were obtained:
Test in all cases: DTP human tumour cell line panel, 48 h
MDA-MB-231 = system: MDA-MB-231
HCC 2998 = system: HCC 2998
ACHN = system: ACHN
RPMI-8226 = system: RPMI-8226
SNB-19 = system: SNB-19
SK-MEL-28 = system: SK-MEL-28
BT-549 = system: BT-549
SF-539 = system: SF-539
SW-620 = system: SW-620
K562 = system: K562
NCI-H226 = system: NCI-H226
EKVX = system: EKVX
Malme-3M = system: Malme-3M
IGROV-1 = system: IGROV-1
SK-MEL-2 = system: SK-MEL-2
UACC-62 = system: UACC-62
MCF7 = system: MCF7
HT-29 = system: HT-29
OVCAR-5 = system: OVCAR-5
KM12 = system: KM12
SK-OV-3 = system: SK-OV-3
786-0 = system: 786-0
HCT-15 = system: HCT-15
CCRF-CEM = system: CCRF-CEM
Hs-578T = system: Hs-578T
LOX IMVI = system: LOX IMVI
COLO 205 = system: COLO 205
OVCAR-4 = system: OVCAR-4
HCT-116 = system: HCT-116
RXF 393 = system: RXF 393
HOP-92 = system: HOP-92
OVCAR-8 = system: OVCAR-8
SF-295 = system: SF-295
SNB-75 = system: SNB-75
NCI-H522 = system: NCI-H522
NCI/ADR-RES = system: NCI/ADR-RES
UACC-257 = system: UACC-257
MDA-MB-435 = system: MDA-MB-435
CAKI-1 = system: CAKI-1
SK-MEL-5 = system: SK-MEL-5
T47D = system: T47D
SF-268 = system: SF-268
OVCAR-3 = system: OVCAR-3
PC-3 = system: PC-3
SR = system: SR
HOP-62 = system: HOP-62
U-251 = system: U-251
MDA-N = system: MDA-N
SN12C = system: SN12C
NCI-H460 = system: NCI-H460
A549 = system: A549
A498 = system: A498
DU-145 = system: DU-145
TK-10 = system: TK-10
NCI-H23 = system: NCI-H23
M14 = system: M14
MOLT-4 = system: MOLT-4
UO-31 = system: UO-31

For C=C(C)C(=O)O[C@@H]1C[C@@]2(C)O[C@@H]2C[C@H](O)/C(C)=C/[C@H]2OC(=O)C(=C)[C@@H]21, the GI50 (MDA-MB-231) was > 100 µM (inactive), the GI50 (HCC 2998) was > 100 µM (inactive) and the GI50 (ACHN) was 47.2 µM (inactive). The GI50 (RPMI-8226) was 40.1 µM (inactive), the GI50 (SNB-19) was > 100 µM (inactive) and the GI50 (SK-MEL-28) was 22.4 µM (inactive). The GI50 (BT-549) was 63.1 µM (inactive), the GI50 (SF-539) was > 100 µM (inactive) and the GI50 (SW-620) was 18.7 µM (inactive). The GI50 (K562) was 29 µM (inactive), the GI50 (NCI-H226) was > 100 µM (inactive) and the GI50 (EKVX) was 62.2 µM (inactive). For the same compound, the GI50 (Malme-3M) was 24.5 µM (inactive), the GI50 (IGROV-1) was > 100 µM (inactive) and the GI50 (SK-MEL-2) was 49.1 µM (inactive). For the same compound, the GI50 (UACC-62) was 74.5 µM (inactive), the GI50 (MCF7) was 35.8 µM (inactive) and the GI50 (HT-29) was 61.5 µM (inactive). The GI50 (OVCAR-5) was > 100 µM (inactive), the GI50 (KM12) was > 100 µM (inactive) and the GI50 (SK-OV-3) was > 100 µM (inactive). The GI50 (786-0) was 38.9 µM (inactive), the GI50 (HCT-15) was 30.9 µM and the GI50 (CCRF-CEM) was 17.3 µM (inactive). For the same compound, the GI50 (Hs-578T) was > 100 µM (inactive), the GI50 (LOX IMVI) was 29.9 µM (inactive) and the GI50 (COLO 205) was 42 µM (inactive). The GI50 (OVCAR-4) was 19.9 µM (inactive), the GI50 (HCT-116) was 33.7 µM (inactive) and the GI50 (RXF 393) was 33.3 µM (inactive). The GI50 (HOP-92) was 52.8 µM (inactive), the GI50 (OVCAR-8) was 40.6 µM (inactive) and the GI50 (SF-295) was > 100 µM (inactive). For the same compound, the GI50 (SNB-75) was > 100 µM (inactive), the GI50 (NCI-H522) was 12.6 µM (inactive) and the GI50 (NCI/ADR-RES) was 60.7 µM (inactive). The GI50 (UACC-257) was > 100 µM (inactive), the GI50 (MDA-MB-435) was 59.6 µM (inactive) and the GI50 (CAKI-1) was 28.6 µM (inactive). The GI50 (SK-MEL-5) was > 100 µM (inactive), the GI50 (T47D) was 50.7 µM (inactive) and the GI50 (SF-268) was > 100 µM (inactive). The GI50 (OVCAR-3) was 47.9 µM (inactive), the GI50 (PC-3) was > 100 µM (inactive) and the GI50 (SR) was 28.2 µM (inactive). For the same compound, the GI50 (HOP-62) was > 100 µM (inactive), the GI50 (U-251) was > 100 µM (inactive) and the GI50 (MDA-N) was 50 µM (inactive). The GI50 (SN12C) was 36.6 µM (inactive), the GI50 (NCI-H460) was > 100 µM (inactive) and the GI50 (A549) was > 100 µM (inactive). The GI50 (A498) was > 100 µM (inactive), the GI50 (DU-145) was > 100 µM (inactive) and the GI50 (TK-10) was > 100 µM (inactive). The GI50 (NCI-H23) was > 100 µM (inactive), the GI50 (M14) was 43.1 µM (inactive) and the GI50 (MOLT-4) was 28.8 µM (inactive).
With ClC(Cl)(Cl)C1=N[C@H]2[C@H](Br)[C@@H]3O[C@@H](c4ccccc4)[C@H](c4ccccc4)O[C@@H]3[C@H]2O1 the GI50 (MDA-MB-231) was 23 µM (inactive), the GI50 (HCC 2998) was 15.2 µM (inactive) and the GI50 (ACHN) was 17.3 µM (inactive). For the same compound, the GI50 (RPMI-8226) was 16.2 µM (inactive), the GI50 (SNB-19) was 27.4 µM (inactive) and the GI50 (SK-MEL-28) was 20.3 µM (inactive). For the same compound, the GI50 (BT-549) was 24.9 µM (inactive), the GI50 (SW-620) was 19.6 µM (inactive) and the GI50 (K562) was 21.2 µM (inactive). The GI50 (NCI-H226) was 19.8 µM (inactive), the GI50 (EKVX) was 26.2 µM (inactive) and the GI50 (Malme-3M) was 19.2 µM (inactive). The GI50 (IGROV-1) was 15.3 µM (inactive), the GI50 (SK-MEL-2) was 16.2 µM (inactive) and the GI50 (UACC-62) was 16.3 µM (inactive). The GI50 (MCF7) was 17.3 µM (inactive), the GI50 (HT-29) was 20.5 µM (inactive) and the GI50 (OVCAR-5) was 18.9 µM (inactive). For the same compound, the GI50 (KM12) was 20.1 µM (inactive), the GI50 (SK-OV-3) was 18.5 µM (inactive) and the GI50 (786-0) was 21.4 µM (inactive). The GI50 (HCT-15) was 27.2 µM, the GI50 (CCRF-CEM) was 17.7 µM (inactive) and the GI50 (Hs-578T) was 23.8 µM (inactive). For the same compound, the GI50 (LOX IMVI) was 17.1 µM (inactive), the GI50 (COLO 205) was 16.3 µM (inactive) and the GI50 (OVCAR-4) was 18.7 µM (inactive). The GI50 (HCT-116) was 18.7 µM (inactive), the GI50 (RXF 393) was 20.5 µM (inactive) and the GI50 (HOP-92) was 16.5 µM (inactive). For the same compound, the GI50 (UO-31) was 20.7 µM (inactive), the GI50 (OVCAR-8) was 17.6 µM (inactive) and the GI50 (SF-295) was 17.1 µM (inactive). The GI50 (SNB-75) was 20.9 µM (inactive), the GI50 (NCI-H522) was 10.9 µM (inactive) and the GI50 (NCI/ADR-RES) was 25.7 µM (inactive). The GI50 (UACC-257) was 18.3 µM (inactive), the GI50 (MDA-MB-435) was 20.7 µM (inactive) and the GI50 (CAKI-1) was 16 µM (inactive). For the same compound, the GI50 (SK-MEL-5) was 17.3 µM (inactive), the GI50 (T47D) was 30.2 µM (inactive) and the GI50 (SF-268) was 18.4 µM (inactive). The GI50 (OVCAR-3) was 16.6 µM (inactive), the GI50 (PC-3) was 16 µM (inactive) and the GI50 (SR) was 21.1 µM (inactive). The GI50 (HOP-62) was 18.6 µM (inactive), the GI50 (U-251) was 17.1 µM (inactive) and the GI50 (MDA-N) was 20.3 µM (inactive). The GI50 (SN12C) was 20.1 µM (inactive), the GI50 (NCI-H460) was 16 µM (inactive) and the GI50 (A549) was 21.5 µM (inactive). The GI50 (A498) was 17.2 µM (inactive), the GI50 (DU-145) was 26.5 µM (inactive) and the GI50 (TK-10) was 20.4 µM (inactive). The GI50 (NCI-H23) was 21 µM (inactive), the GI50 (M14) was 23.8 µM (inactive) and the GI50 (MOLT-4) was 18.2 µM (inactive).
